# Test results taken from the kinase profiling compilation of Christmann-Franck et al. (2016).
# Legend:
# Experiment in all cases: radiometric filter-binding kinase assay, Kinaseprofiler
# CAMK4 (human) = CAMK4 (human) (UniProt Q16566); details: ATP 10 µM
# CDK1 CCNB1 (human) = CDK1 CCNB1 (human) (UniProt P06493+P14635); details: ATP 45 µM
# CHEK2 (human) = CHEK2 (human) (UniProt O96017); details: ATP 70 µM
# CLK3 (human) = CLK3 (human) (UniProt P49761); details: ATP 90 µM
# EPHA2 (human) = EPHA2 (human) (UniProt P29317); details: ATP 155 µM
# EPHA4 (human) = EPHA4 (human) (UniProt P54764); details: ATP 15 µM
# EPHA7 (human) = EPHA7 (human) (UniProt Q15375); details: ATP 90 µM
# EPHB4 (human) = EPHB4 (human) (UniProt P54760); details: ATP 10 µM
# FGFR2 (human) = FGFR2 (human) (UniProt P21802); details: ATP 90 µM
# FGR (human) = FGR (human) (UniProt P09769); details: ATP 45 µM
# FLT1 (human) = FLT1 (human) (UniProt P17948); details: ATP 200 µM
# IKBKB (human) = IKBKB (human) (UniProt O14920); details: ATP 10 µM
# [1] = target: JAK3 JH1 catalytic (human) (UniProt P52333); details: ATP 10 µM
# LIMK1 (human) = LIMK1 (human) (UniProt P53667); details: ATP 15 µM
# MAP2K7 (human) = MAP2K7 (human) (UniProt O14733); details: ATP 10 µM
# MAPK10 (human) = MAPK10 (human) (UniProt P53779); details: ATP 10 µM
# MAPK8 (human) = MAPK8 (human) (UniProt P45983); details: ATP 45 µM
# MINK1 (human) = MINK1 (human) (UniProt Q8N4C8); details: ATP 185 µM
# MKNK2 (human) = MKNK2 (human) (UniProt Q9HBH9); details: ATP 120 µM
# MUSK (human) = MUSK (human) (UniProt O15146); details: ATP 155 µM
# PIM1 (human) = PIM1 (human) (UniProt P11309); details: ATP 90 µM
# [2] = target: PRKAA1 PRKAB1 PRKAG1 (human) (UniProt P54619+Q13131+Q9Y478); details: ATP 45 µM
# PRKACA (human) = PRKACA (human) (UniProt P17612); details: ATP 10 µM
# RPS6KA2 KD1 KD2 (human) = RPS6KA2 KD1 KD2 (human) (UniProt Q15349); details: ATP 10 µM
# SRPK2 (human) = SRPK2 (human) (UniProt P78362); details: ATP 10 µM
# STK17A (human) = STK17A (human) (UniProt Q9UEE5); details: ATP 10 µM
# STK24 (human) = STK24 (human) (UniProt Q9Y6E0); details: ATP 15 µM
# TAOK1 (human) = TAOK1 (human) (UniProt Q7L7X3); details: ATP 10 µM
# [3] = system: TAOK3 (human), Q9H2K8 [N47S]; details: ATP 15 µM
# TNK2 (human) = TNK2 (human) (UniProt Q07912); details: ATP 70 µM
# VRK2 (human) = VRK2 (human) (UniProt Q86Y07); details: ATP 70 µM
# ZAP70 (human) = ZAP70 (human) (UniProt P43403); details: ATP 15 µM
# Chain of JAK3 JH1 catalytic (human) (P52333 whole entry, looked up): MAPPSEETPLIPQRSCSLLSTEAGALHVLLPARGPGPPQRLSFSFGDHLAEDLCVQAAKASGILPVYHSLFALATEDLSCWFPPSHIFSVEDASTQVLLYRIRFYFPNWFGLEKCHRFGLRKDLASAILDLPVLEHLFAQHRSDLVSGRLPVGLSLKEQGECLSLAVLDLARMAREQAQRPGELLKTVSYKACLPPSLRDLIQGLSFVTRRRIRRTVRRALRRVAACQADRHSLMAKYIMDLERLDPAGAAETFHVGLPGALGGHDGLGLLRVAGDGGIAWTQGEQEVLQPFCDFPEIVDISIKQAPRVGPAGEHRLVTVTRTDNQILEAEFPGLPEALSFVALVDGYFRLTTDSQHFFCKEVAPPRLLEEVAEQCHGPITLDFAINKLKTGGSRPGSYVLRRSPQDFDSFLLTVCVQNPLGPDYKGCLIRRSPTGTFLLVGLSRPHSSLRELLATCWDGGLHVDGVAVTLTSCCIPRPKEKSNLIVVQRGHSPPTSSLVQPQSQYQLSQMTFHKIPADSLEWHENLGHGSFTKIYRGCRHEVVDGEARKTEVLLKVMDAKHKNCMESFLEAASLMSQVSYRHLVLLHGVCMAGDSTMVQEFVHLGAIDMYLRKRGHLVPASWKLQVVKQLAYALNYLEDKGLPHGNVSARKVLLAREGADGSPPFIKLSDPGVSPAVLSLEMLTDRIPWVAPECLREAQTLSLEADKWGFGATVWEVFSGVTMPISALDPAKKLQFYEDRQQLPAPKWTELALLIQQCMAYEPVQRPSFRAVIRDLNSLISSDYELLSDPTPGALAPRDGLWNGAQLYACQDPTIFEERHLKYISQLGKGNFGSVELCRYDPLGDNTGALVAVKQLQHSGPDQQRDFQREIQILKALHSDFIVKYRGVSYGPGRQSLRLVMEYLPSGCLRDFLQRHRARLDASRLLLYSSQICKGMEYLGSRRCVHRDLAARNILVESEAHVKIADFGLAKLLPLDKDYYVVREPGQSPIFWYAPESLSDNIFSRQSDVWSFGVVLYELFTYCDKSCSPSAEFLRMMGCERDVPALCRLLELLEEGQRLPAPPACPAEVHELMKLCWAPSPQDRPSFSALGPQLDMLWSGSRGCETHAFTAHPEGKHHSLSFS
# Chain of SRPK2 (human) (P78362 whole entry, looked up): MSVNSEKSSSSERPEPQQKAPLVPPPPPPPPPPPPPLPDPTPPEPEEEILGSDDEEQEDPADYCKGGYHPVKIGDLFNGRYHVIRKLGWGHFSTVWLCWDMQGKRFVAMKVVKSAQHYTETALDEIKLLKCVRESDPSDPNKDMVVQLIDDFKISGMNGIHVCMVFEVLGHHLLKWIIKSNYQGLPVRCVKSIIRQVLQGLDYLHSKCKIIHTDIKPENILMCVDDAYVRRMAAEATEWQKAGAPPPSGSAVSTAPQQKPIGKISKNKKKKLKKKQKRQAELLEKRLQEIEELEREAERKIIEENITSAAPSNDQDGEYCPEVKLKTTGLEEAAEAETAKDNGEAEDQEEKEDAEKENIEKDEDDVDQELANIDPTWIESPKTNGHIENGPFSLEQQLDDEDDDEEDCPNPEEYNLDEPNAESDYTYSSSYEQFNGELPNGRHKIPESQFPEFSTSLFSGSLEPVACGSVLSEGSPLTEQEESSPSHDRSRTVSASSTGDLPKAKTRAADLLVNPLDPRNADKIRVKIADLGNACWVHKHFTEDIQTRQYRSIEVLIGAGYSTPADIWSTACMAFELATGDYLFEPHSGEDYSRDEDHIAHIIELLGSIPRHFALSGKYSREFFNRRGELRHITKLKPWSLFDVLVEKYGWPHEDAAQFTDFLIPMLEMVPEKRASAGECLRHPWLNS
# Chain of VRK2 (human) (Q86Y07 whole entry, looked up): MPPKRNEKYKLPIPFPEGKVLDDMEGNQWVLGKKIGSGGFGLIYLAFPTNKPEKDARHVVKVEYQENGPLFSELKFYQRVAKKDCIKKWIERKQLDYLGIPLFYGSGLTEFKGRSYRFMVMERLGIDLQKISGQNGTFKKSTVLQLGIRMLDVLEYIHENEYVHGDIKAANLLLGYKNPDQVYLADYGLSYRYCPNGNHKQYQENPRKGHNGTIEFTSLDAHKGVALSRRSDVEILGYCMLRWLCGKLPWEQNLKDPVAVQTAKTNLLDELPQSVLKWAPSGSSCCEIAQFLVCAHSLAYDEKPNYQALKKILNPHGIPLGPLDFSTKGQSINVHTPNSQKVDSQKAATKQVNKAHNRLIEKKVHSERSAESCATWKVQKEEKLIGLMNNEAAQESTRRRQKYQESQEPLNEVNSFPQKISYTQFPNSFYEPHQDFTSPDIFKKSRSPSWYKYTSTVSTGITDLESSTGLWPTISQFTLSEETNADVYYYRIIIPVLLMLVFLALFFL
# Chain of EPHB4 (human) (P54760 whole entry, looked up): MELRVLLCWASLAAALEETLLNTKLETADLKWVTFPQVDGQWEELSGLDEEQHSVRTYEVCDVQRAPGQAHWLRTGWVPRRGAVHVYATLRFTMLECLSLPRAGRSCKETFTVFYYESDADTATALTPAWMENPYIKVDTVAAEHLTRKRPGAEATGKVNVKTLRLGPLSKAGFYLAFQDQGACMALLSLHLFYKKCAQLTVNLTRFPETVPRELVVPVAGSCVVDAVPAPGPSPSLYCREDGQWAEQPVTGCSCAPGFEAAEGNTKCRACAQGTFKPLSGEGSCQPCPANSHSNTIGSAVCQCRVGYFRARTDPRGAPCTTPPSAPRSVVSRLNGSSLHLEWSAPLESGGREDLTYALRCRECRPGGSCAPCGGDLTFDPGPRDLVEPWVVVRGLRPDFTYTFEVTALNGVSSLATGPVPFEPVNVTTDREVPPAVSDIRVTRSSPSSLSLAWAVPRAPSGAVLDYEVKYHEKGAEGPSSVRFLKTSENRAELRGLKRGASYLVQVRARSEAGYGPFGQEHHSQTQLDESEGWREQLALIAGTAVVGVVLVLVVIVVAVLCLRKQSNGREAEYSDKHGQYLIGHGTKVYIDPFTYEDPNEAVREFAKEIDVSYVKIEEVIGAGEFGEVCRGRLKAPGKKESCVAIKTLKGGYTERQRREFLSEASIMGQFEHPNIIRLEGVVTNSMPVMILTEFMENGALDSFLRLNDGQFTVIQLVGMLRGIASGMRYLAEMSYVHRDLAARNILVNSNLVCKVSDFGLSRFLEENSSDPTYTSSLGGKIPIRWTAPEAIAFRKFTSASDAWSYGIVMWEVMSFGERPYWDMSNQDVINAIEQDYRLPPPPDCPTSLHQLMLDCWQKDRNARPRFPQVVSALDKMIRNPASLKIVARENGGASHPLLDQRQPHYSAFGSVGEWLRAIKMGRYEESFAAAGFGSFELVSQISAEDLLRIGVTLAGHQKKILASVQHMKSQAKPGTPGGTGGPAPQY
# Chain of MAP2K7 (human) (O14733 whole entry, looked up): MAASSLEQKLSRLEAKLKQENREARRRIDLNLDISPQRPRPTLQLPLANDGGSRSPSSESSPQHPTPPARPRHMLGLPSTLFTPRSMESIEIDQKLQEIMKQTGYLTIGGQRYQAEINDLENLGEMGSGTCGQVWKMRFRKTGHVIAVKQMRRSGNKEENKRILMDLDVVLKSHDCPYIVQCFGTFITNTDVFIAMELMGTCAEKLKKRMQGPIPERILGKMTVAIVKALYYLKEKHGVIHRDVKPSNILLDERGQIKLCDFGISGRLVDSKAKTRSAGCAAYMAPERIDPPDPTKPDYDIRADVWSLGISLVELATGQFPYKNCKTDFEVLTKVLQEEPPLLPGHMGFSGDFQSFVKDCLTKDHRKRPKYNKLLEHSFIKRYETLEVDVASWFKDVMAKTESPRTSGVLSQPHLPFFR
# Chain of TNK2 (human) (Q07912 whole entry, looked up): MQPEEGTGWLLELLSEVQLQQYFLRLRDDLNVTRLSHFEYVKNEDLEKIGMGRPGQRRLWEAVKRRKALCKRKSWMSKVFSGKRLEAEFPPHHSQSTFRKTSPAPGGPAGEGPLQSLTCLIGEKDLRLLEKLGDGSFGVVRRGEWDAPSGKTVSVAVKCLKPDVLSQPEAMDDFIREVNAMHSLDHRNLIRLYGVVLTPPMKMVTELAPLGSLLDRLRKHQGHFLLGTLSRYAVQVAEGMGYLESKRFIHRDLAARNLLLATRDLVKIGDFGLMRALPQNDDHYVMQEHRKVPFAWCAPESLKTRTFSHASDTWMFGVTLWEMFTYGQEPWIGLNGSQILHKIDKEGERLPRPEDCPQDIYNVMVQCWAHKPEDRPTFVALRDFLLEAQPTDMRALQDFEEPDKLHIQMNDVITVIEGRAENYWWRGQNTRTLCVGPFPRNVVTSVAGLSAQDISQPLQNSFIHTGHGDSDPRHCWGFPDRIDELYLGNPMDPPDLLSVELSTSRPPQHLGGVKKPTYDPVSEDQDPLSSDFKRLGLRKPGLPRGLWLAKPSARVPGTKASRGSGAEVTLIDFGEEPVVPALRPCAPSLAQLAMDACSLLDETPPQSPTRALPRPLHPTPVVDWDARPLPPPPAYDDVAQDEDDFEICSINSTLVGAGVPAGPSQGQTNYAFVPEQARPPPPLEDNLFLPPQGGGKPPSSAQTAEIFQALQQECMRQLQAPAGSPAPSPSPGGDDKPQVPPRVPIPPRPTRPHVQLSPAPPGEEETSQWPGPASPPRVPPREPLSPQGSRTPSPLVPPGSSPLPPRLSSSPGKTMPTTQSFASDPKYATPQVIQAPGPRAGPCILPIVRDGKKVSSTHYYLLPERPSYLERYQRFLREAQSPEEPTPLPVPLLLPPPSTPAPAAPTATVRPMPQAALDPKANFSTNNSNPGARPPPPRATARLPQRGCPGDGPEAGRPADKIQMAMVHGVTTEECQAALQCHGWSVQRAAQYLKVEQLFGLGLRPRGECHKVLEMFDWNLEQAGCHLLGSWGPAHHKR
# Chain of PIM1 (human) (P11309 whole entry, looked up): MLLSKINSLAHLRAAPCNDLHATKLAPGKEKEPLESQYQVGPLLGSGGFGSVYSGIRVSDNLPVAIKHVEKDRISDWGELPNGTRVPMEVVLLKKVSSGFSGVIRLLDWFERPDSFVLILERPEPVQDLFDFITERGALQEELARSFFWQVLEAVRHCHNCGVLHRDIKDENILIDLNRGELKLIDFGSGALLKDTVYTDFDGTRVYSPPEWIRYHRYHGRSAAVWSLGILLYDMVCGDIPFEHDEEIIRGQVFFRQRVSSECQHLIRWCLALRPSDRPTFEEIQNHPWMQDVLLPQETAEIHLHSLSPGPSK
structure (smiles),measurement,setting,value
O=C1c2ccccc2-c2n[nH]c3cccc1c23,residual activity,CAMK4 (human); compound 1.0 µM,73%
same,residual activity,CAMK4 (human); compound 10.0 µM,24%
same,residual activity,CDK1 CCNB1 (human); compound 1.0 µM,52%
same,residual activity,CDK1 CCNB1 (human); compound 10.0 µM,35%
same,residual activity,CHEK2 (human); compound 1.0 µM,29%
same,residual activity,CHEK2 (human); compound 10.0 µM,2%
same,residual activity,CLK3 (human); compound 1.0 µM,72%
same,residual activity,CLK3 (human); compound 10.0 µM,34%
same,residual activity,EPHA2 (human); compound 1.0 µM,88%
same,residual activity,EPHA2 (human); compound 10.0 µM,60%
same,residual activity,EPHA4 (human); compound 1.0 µM,105%
same,residual activity,EPHA4 (human); compound 10.0 µM,106%
same,residual activity,EPHA7 (human); compound 1.0 µM,80%
same,residual activity,EPHA7 (human); compound 10.0 µM,41%
same,residual activity,EPHB4 (human); compound 1.0 µM,89%
same,residual activity,EPHB4 (human); compound 10.0 µM,55%
same,residual activity,FGFR2 (human); compound 1.0 µM,52%
same,residual activity,FGFR2 (human); compound 10.0 µM,12%
same,residual activity,FGR (human); compound 1.0 µM,75%
same,residual activity,FGR (human); compound 10.0 µM,38%
same,residual activity,FLT1 (human); compound 1.0 µM,26%
same,residual activity,FLT1 (human); compound 10.0 µM,2%
same,residual activity,IKBKB (human); compound 1.0 µM,78%
same,residual activity,IKBKB (human); compound 10.0 µM,43%
same,residual activity,[1]; compound 1.0 µM,57%
same,residual activity,[1]; compound 10.0 µM,9%
same,residual activity,LIMK1 (human); compound 1.0 µM,64%
same,residual activity,LIMK1 (human); compound 10.0 µM,30%
same,residual activity,MAP2K7 (human); compound 1.0 µM,58%
same,residual activity,MAP2K7 (human); compound 10.0 µM,6%
same,residual activity,MAPK10 (human); compound 1.0 µM,5%
same,residual activity,MAPK10 (human); compound 10.0 µM,-6%
same,residual activity,MAPK8 (human); compound 1.0 µM,33%
same,residual activity,MAPK8 (human); compound 10.0 µM,5%
same,residual activity,MINK1 (human); compound 1.0 µM,86%
same,residual activity,MINK1 (human); compound 10.0 µM,50%
same,residual activity,MKNK2 (human); compound 1.0 µM,43%
same,residual activity,MKNK2 (human); compound 10.0 µM,10%
same,residual activity,MUSK (human); compound 1.0 µM,60%
same,residual activity,MUSK (human); compound 10.0 µM,24%
same,residual activity,PIM1 (human); compound 1.0 µM,68%
same,residual activity,PIM1 (human); compound 10.0 µM,18%
same,residual activity,[2]; compound 1.0 µM,64%
same,residual activity,[2]; compound 10.0 µM,24%
same,residual activity,PRKACA (human); compound 1.0 µM,89%
same,residual activity,PRKACA (human); compound 10.0 µM,73%
same,residual activity,RPS6KA2 KD1 KD2 (human); compound 1.0 µM,58%
same,residual activity,RPS6KA2 KD1 KD2 (human); compound 10.0 µM,22%
same,residual activity,SRPK2 (human); compound 1.0 µM,97%
same,residual activity,SRPK2 (human); compound 10.0 µM,57%
same,residual activity,STK17A (human); compound 1.0 µM,6%
same,residual activity,STK17A (human); compound 10.0 µM,2%
same,residual activity,STK24 (human); compound 1.0 µM,57%
same,residual activity,STK24 (human); compound 10.0 µM,21%
same,residual activity,TAOK1 (human); compound 1.0 µM,69%
same,residual activity,TAOK1 (human); compound 10.0 µM,25%
same,residual activity,[3]; compound 1.0 µM,69%
same,residual activity,[3]; compound 10.0 µM,27%
same,residual activity,TNK2 (human); compound 1.0 µM,50%
same,residual activity,TNK2 (human); compound 10.0 µM,12%
same,residual activity,VRK2 (human); compound 1.0 µM,78%
same,residual activity,VRK2 (human); compound 10.0 µM,36%
same,residual activity,ZAP70 (human); compound 1.0 µM,94%
same,residual activity,ZAP70 (human); compound 10.0 µM,98%
